In patent publication US7135466B2 (Kirin Beer Kabushiki Kaisha, priority 1999, dated 2006):
Like-named read-outs stand apart in the source and are kept apart here.

How the values were obtained:
PDGF-Ra = target: T1, PDGF-Ra (Homo sapiens, UniProt P16234); assay: Inhibitory activity against PDGF-Ra phosphorylation by PDGF-AA stimulation using G292; type: cell-based; conditions: for IC50: > means inhibition at indicated concentration not more than 50%, < and << not less than 50%, read-out: PDGF (E) IC50; for inhibition at 0.1 µM: G292, at 100 nM, read-out: PDGF (E) inhibition (%) at 100 nM
T1 construct: host or cells: G-292 human osteosarcoma cells
In short: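 Read-out: A450 from a sandwich ELISA (PY-20 capture, anti-PDGF-Ra detection, peroxidase colour) of lysates from G-292 cells given compound for 1 hr at 37 °C before a 5 min challenge with PDGF-AA at 50 ng/ml.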

c-kit = target: T2, c-kit (Homo sapiens, UniProt P10721); assay: Inhibitory activity against c-kit autophosphorylation (MO7e cells, h-SCF); type: cell-based; conditions: for IC50: MO7e cells, read-out: c-kit IC50; for inhibition at 1 µM: Mo7e, at 1000 nM
T2 construct: MO7e (human megakaryocytic leukemia cell line) which had been arrested for 20 hr; endogenous in cells; host or cells: MO7e human megakaryocytic leukemia cell line
In short: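 Ligand-induced c-kit tyrosine phosphorylation is measured in MO7e cells that were quiesced 20 hr and preincubated with compound for 1 hr prior to a 5 min pulse of 50 ng/ml human SCF. Phospho-c-kit is detected by anti-phosphotyrosine capture ELISA, A450.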

[1] = figure in parentheses in >100( )
[2] = figure within parentheses in −( ) or >1000( )
[3] = figure within parentheses in >100( )

T1 sequence (P16234 24-1089): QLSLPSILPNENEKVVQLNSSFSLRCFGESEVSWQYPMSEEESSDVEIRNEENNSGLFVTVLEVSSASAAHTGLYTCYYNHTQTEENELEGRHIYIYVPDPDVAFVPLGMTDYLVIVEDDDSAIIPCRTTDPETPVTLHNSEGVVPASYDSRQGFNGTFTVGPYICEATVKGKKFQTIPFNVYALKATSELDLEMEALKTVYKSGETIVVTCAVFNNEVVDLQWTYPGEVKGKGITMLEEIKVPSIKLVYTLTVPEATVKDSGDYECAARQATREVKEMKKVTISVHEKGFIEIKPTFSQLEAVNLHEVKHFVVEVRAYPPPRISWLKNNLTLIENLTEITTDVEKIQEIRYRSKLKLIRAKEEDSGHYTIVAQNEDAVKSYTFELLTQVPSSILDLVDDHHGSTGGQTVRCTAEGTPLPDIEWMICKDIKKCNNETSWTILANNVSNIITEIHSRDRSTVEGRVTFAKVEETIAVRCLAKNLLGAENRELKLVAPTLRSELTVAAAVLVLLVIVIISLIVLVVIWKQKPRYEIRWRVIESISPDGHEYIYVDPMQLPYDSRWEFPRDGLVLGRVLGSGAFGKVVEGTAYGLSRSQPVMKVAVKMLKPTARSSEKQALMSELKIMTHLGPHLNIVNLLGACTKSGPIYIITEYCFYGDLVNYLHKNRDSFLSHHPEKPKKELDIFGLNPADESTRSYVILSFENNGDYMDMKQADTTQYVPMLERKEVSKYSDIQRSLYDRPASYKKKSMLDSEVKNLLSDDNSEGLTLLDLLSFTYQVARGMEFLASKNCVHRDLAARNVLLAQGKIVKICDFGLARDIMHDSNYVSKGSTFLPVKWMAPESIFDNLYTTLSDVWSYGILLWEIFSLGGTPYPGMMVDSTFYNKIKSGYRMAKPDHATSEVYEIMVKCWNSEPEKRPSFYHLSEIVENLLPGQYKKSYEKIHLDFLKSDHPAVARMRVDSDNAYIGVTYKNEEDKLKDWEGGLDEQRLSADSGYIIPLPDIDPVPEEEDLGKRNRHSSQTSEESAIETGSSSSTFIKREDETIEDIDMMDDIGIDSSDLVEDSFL
T2 sequence (P10721 26-976): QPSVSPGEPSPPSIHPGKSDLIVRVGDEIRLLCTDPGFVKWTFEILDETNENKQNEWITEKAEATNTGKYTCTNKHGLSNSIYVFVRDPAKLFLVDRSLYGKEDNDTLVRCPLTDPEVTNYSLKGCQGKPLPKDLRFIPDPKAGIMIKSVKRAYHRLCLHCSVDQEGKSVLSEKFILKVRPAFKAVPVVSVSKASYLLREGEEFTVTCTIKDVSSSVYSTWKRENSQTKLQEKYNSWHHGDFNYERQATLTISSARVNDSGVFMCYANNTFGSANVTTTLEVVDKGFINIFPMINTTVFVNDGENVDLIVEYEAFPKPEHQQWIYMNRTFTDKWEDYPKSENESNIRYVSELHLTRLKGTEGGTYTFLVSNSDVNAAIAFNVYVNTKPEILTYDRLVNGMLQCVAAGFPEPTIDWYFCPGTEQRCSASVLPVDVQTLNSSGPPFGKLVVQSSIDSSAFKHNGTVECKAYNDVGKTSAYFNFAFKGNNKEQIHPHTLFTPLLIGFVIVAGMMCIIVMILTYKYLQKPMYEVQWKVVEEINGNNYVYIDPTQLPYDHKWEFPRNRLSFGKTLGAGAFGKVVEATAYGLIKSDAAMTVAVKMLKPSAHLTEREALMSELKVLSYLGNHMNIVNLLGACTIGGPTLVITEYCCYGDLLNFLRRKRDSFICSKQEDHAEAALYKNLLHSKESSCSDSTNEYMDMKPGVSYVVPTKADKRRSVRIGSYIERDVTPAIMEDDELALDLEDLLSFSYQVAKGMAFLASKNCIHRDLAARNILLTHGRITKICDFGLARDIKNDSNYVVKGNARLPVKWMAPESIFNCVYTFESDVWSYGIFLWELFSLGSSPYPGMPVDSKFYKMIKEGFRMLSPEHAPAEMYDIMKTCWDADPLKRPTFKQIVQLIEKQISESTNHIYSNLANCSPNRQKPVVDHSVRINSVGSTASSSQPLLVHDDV

For CCC(OC(=O)Nc1ccc(Oc2ccnc3cc(OC)c(OC)cc23)cc1)c1ccccc1 (stereo not shown) [Example 263, 1-Phenylpropyl N-{4-[(6,7-dimethoxy-4-quinolyl)oxy]phenyl}carbamate], the IC50 (PDGF-Ra; Pharmacological Test Example 1) was 10 nM and the IC50 (c-kit; h-SCF 50 ng/ml) was 329 nM.
In the case of COc1cc2ncnc(Oc3ccc(NC(=O)OCCSc4ccc(C)cc4)c(Cl)c3)c2cc1OC [Example 141, 3-[(4-Methylphenyl)sulfanyl]ethyl N-{2-chloro-4-[(6,7-dimethoxy-4-quinazolinyl)oxy]phenyl}carbamate], the IC50 (PDGF-Ra; Pharmacological Test Example 1) is reported as 36 nM and the inhibition at 1 µM (c-kit; figure in parentheses in −( )) is reported as 26%.
In the case of CCN(CCNC(=O)Nc1ccc(Oc2ccnc3cc(OC)c(OC)cc23)c(C)c1C)c1cccc(C)c1 [Example 663, N-{4-[(6,7-Dimethoxy-4-quinolyl)oxy]-2,3-dimethylphenyl}-N′-[2-(ethyl-3-methylanilino)ethyl]urea], the IC50 (PDGF-Ra) is reported as < 10 nM and the IC50 (c-kit; 50 ng/ml h-SCF) is reported as 202 nM.
With COc1cc2ncnc(Oc3ccc(NC(=O)OCCCOc4ccccc4Cl)c(Cl)c3)c2cc1OC [Example 20, 3-(2-Chlorophenoxy)propyl N-{2-chloro-4-[(6,7-dimethoxy-4-quinazolinyl)oxy]phenyl}carbamate] the IC50 (PDGF-Ra; Pharmacological Test Example 1) was < 10 nM and the IC50 (c-kit; h-SCF 50 ng/ml) was 109 nM.
COc1cc2nccc(Oc3cc(C)c(NCCOc4c(C)cccc4C)cc3C)c2cc1OC [Example 895, N-{4-[(6,7-Dimethoxy-4-quinolyl)oxy]-2,5-dimethylphenyl}-N-[2-(2,6-dimethylphenoxy)ethyl]amine] was tested, and the IC50 (PDGF-Ra) was > 100 nM, the inhibition at 0.1 µM (PDGF-Ra; [1]) was 33% and the inhibition at 1 µM (c-kit; figure in parentheses in −( )) was 20%.
In the case of COc1cc2nccc(Oc3cc(C)c(NC(=O)NCCN(C(C)C)C(C)C)cc3C)c2cc1OC [Example 671, N-[2-(Diisopropylamino)ethyl]-N′-{4-[(6,7-dimethoxy-4-quinolyl)oxy]-2,5-dimethylphenyl}urea], the IC50 (PDGF-Ra) is reported as 64 nM and the inhibition at 1 µM (c-kit; [2]) is reported as 22%.
COc1cc2nccc(Oc3ccc(NC(=O)OCCN4C(=O)c5ccccc5C4=O)c(C)c3C)c2cc1OC [Example 420, 2-(1,3-Dioxo-2,3-dihydro-1H-2-isoindolyl)ethyl N-{4-[(6,7-dimethoxy-4-quinolyl)oxy]-2,3-dimethylphenyl}carbamate] gave an IC50 (PDGF-Ra) of 16 nM and an IC50 (c-kit; 50 ng/ml h-SCF) of 77 nM.
With COc1cc2nccc(Oc3ccc(NC(=O)OCc4ccc(F)cc4)cc3)c2cc1OC [Example 8, 4-Fluorobenzyl N-{4-[(6,7-dimethoxy-4-quinolyl)oxy]phenyl}carbamate] the IC50 (PDGF-Ra; Pharmacological Test Example 1) was < 10 nM and the IC50 (c-kit; h-SCF 50 ng/ml) was 62 nM.
For COc1cc2nccc(Oc3ccc(NC(=O)Oc4ccc(C(C)(C)C)cc4)c(C)c3C)c2cc1OC [Example 275, 4-(Tert-butyl)phenyl N-{4-[(6,7-dimethoxy-4-quinolyl)oxy]-2,3-dimethylphenyl}carbamate], the IC50 (PDGF-Ra; Pharmacological Test Example 1) was 16 nM and the IC50 (c-kit; h-SCF 50 ng/ml) was 103 nM.
For COc1ccccc1CCC(=O)NC(=S)Nc1ccc(Oc2ncnc3cc(OC)c(OC)cc23)cc1 [Example 1141, N-{4-[(6,7-Dimethoxy-4-quinazolinyl)oxy]phenyl}-N′-[3-(2-methoxyphenyl)propanoyl]thiourea], the IC50 (PDGF-Ra) was < 10 nM and the IC50 (c-kit; h-SCF stimulation) was 416 nM.
In the case of COc1cc2nccc(Oc3ccc(NC(=O)OCCCOc4ccccc4OC)cc3)c2cc1OC [Example 157, 3-(2-Methoxyphenoxy)propyl N-{4-[(6,7-dimethoxy-4-quinolyl)oxy]phenyl}carbamate], the IC50 (PDGF-Ra; Pharmacological Test Example 1) is reported as < 10 nM and the IC50 (c-kit; h-SCF 50 ng/ml) is reported as 35 nM.
COc1cc2nccc(Oc3ccc(NC(=O)OC(C)c4ccccc4Cl)cc3)c2cc1OC (stereo not shown) [Example 13, 1-(2-Chlorophenyl)ethyl N-{4-[(6,7-dimethoxy-4-quinolyl)oxy]phenyl}carbamate] was tested, and the IC50 (PDGF-Ra; Pharmacological Test Example 1) was < 10 nM and the IC50 (c-kit; h-SCF 50 ng/ml) was 135 nM.
COc1cc2ncnc(Oc3ccc(NC(=O)OC(C)c4ccc(C)cc4)cc3)c2cc1OC (stereo not shown) [Example 135, 1-(4-Methylphenyl)ethyl N{4-[(6,7-dimethoxy-4-quinazolinyl)oxy]phenyl}carbamate] gave an IC50 (PDGF-Ra; Pharmacological Test Example 1) of 18 nM and an IC50 (c-kit; h-SCF 50 ng/ml) of 475 nM.
COc1ccc(COC(=O)Nc2ccc(Oc3ncnc4cc(OC)c(OC)cc34)cc2Cl)cc1OC [Example 66, 3,4-Dimethoxybenzyl N-{2-chloro-4-[(6,7-dimethoxy-4-quinazolinyl)oxy]phenyl}carbamate] showed an IC50 (PDGF-Ra; Pharmacological Test Example 1) of 50 nM and an IC50 (c-kit; h-SCF 50 ng/ml) of 353 nM.
COc1cc2nccc(Oc3ccc(NC(=O)OC(C)c4ccccc4Br)c(C)c3C)c2cc1OC (stereo not shown) [Example 113, 1-(2-Bromophenyl)ethyl N-{4-[(6,7-dimethoxy-4-quinolyl)oxy]-2,3-dimethylphenyl}carbamate] was tested, and the IC50 (PDGF-Ra; Pharmacological Test Example 1) was 18 nM and the IC50 (c-kit; h-SCF 50 ng/ml) was 402 nM.
Molecule COc1cc2nccc(Oc3ccc(NC(=S)NCCCN4CCOCC4)c(C)c3C)c2cc1OC [Example 548, N-{4-[(6,7-Dimethoxy-4-quinolyl)oxy]-2,3-dimethylphenyl}-N′-[3-(1-morpholino)propyl]thiourea] has an IC50 (PDGF-Ra) of 46 nM and an IC50 (c-kit; 50 ng/ml h-SCF) of 268 nM.
CCCC(CCN1CCOCC1)OC(=O)Nc1ccc(Oc2ncnc3cc(OC)c(OC)cc23)cc1 (stereo not shown) [Example 440] gave an IC50 (PDGF-Ra) of 47 nM and an IC50 (c-kit; 50 ng/ml h-SCF) of 351 nM.
With “4-(Dimethylamino)butyl N-{4-[(6,7-dimethoxy-4-quinazolinyl)oxy]phenyl}carbamate [Example 194]” the IC50 (PDGF-Ra; Pharmacological Test Example 1) was 91 nM and the IC50 (c-kit; h-SCF 50 ng/ml) was 715 nM.
For CCN(CC)CCNC(=O)Nc1ccc(Oc2ccnc3cc(OC)c(OC)cc23)cc1[N+](=O)[O-] [Example 646, N-[2-(Diethylamino)ethyl]-N′-{4-[(6,7-dimethoxy-4-quinolyl)oxy]-2-nitrophenyl}urea], the IC50 (PDGF-Ra) was 11 nM and the inhibition at 1 µM (c-kit; [2]) was 0%.
In the case of CCCC(CCN1CCN(C)CC1)OC(=O)Nc1ccc(Oc2ncnc3cc(OC)c(OC)cc23)cc1 (stereo not shown) [Example 452, 1-[2-(4-Methylpiperazino)ethyl]butyl N-{4-[(6,7-dimethoxy-4-quinazolinyl)oxy]phenyl}carbamate], the IC50 (PDGF-Ra) is reported as > 100 nM, the inhibition at 0.1 µM (PDGF-Ra; [3]) is reported as 31% and the inhibition at 1 µM (c-kit; [2]) is reported as 37%.
Molecule CCCCCC(C)OC(=O)Nc1cc(C)c(Oc2ccnc3cc(OC)c(OC)cc23)cc1C (stereo not shown) [Example 412] has an IC50 (PDGF-Ra) of 81 nM and an IC50 (c-kit; 50 ng/ml h-SCF) of 122 nM.
For COc1ccc(OC)c(COC(=O)Nc2ccc(Oc3ccnc4cc(OC)c(OC)cc34)c(C)c2C)c1 [Example 68, 2,5-Dimethoxybenzyl N-{4-[(6,7-dimethoxy-4-quinolyl)oxy]-2,3-dimethylphenyl}carbamate], the IC50 (PDGF-Ra; Pharmacological Test Example 1) was 13 nM and the IC50 (c-kit; h-SCF 50 ng/ml) was 294 nM.
CCCC(CCC)OC(=O)Nc1ccc(Oc2ccnc3cc(OC)c(OC)cc23)cc1 [Example 332, 1-Propylbutyl N-{4-[(6,7-dimethoxy-4-quinolyl)oxy]phenyl}carbamate] was tested, and the IC50 (PDGF-Ra; Pharmacological Test Example 1) was < 10 nM and the IC50 (c-kit; h-SCF 50 ng/ml) was 259 nM.
COc1cc2nccc(Oc3ccc(NC(=S)NC(=O)Cc4ccccc4)cc3Cl)c2cc1OC [Example 1147, N-{3-Chloro-4-[(6,7-dimethoxy-4-quinolyl)oxy]phenyl}-N′-(2-phenylacetyl)thiourea] gave an IC50 (PDGF-Ra) of 10 nM and an IC50 (c-kit; h-SCF stimulation) of 105 nM.
Work on CCC(CC)OC(=O)Nc1ccc(Oc2ncnc3cc(OC)c(OC)cc23)cc1Cl [Example 362, 1-Ethylpropyl N-{2-chloro-4-[(6,7-dimethoxy-4-quinazolinyl)oxy]phenyl}carbamate] yielded an IC50 (PDGF-Ra; Pharmacological Test Example 1) of 42 nM and an inhibition at 1 µM (c-kit; figure in parentheses in −( )) of 26%.
Work on COc1cc2nccc(Oc3cc(C)c(NC(=O)OC(C)c4ccc(F)cc4)cc3C)c2cc1OC (stereo not shown) [Example 104, 1-(4-Fluorophenyl)ethyl N-{4-[(6,7-dimethoxy-4-quinolyl)oxy]-2,5-dimethylphenyl}carbamate] yielded an IC50 (PDGF-Ra; Pharmacological Test Example 1) of 25 nM and an IC50 (c-kit; h-SCF 50 ng/ml) of 590 nM.
COc1cc2nccc(Oc3ccc(NC(=S)NC(=O)COc4ccccc4Cl)cc3Cl)c2cc1OC [Example 714, N-{3-Chloro-4-[(6,7-dimethoxy-4-quinolyl)oxy]phenyl}-N′-[2-(2-chlorophenoxy)acetyl]thiourea] showed an IC50 (PDGF-Ra) of 16 nM and an IC50 (c-kit; 50 ng/ml h-SCF) of 248 nM.
COc1cc2ncnc(Oc3cc(C)c(NC(=O)OC4CCCC4)cc3C)c2cc1OC [Example 392, Cyclopentyl N-{4-[(6,7-dimethoxy-4-quinazolinyl)oxy]-2,5-dimethylphenyl}carbamate] was tested, and the inhibition at 0.1 µM (PDGF-Ra; [1]) was 38%, the IC50 (PDGF-Ra; Pharmacological Test Example 1) was > 100 nM and the IC50 (c-kit; h-SCF 50 ng/ml) was 432 nM.
Work on CCCCCCOC(=O)Nc1ccc(Oc2ncnc3cc(OC)c(OC)cc23)cc1Cl [Example 336, Hexyl N-{2-chloro-4-[(6,7-dimethoxy-4-quinazolinyl)oxy]phenyl}carbamate] yielded an IC50 (PDGF-Ra; Pharmacological Test Example 1) of 14 nM and an IC50 (c-kit; h-SCF 50 ng/ml) of 109 nM.
For COc1cc2nccc(Oc3cc(C)c(NC(=S)NCCNC(C)=O)cc3C)c2cc1OC [Example 515, N-{4-[(6,7-Dimethoxy-4-quinolyl)oxy]-2,5-dimethylphenyl}-N′-(2-acetamidoethyl)thiourea], the IC50 (PDGF-Ra) was > 100 nM, the inhibition at 0.1 µM (PDGF-Ra; [3]) was 32% and the inhibition at 1 µM (c-kit; [2]) was 21%.
COc1ccccc1COC(=O)Nc1ccc(Oc2ccnc3cc(OC)c(OC)cc23)cc1 [Example 248, 2-Methoxybenzyl N-{4-[(6,7-dimethoxy-4-quinolyl)oxy]phenyl}carbamate] gave an IC50 (PDGF-Ra; Pharmacological Test Example 1) of 11 nM and an IC50 (c-kit; h-SCF 50 ng/ml) of 147 nM.
COc1cc2ncnc(Oc3ccc(N(C)C(=O)OCC4CCCCCC4)cc3)c2cc1OC [Example 484] was tested, and the IC50 (PDGF-Ra) was 12 nM and the IC50 (c-kit; 50 ng/ml h-SCF) was 75 nM.
Molecule COc1cc2ncnc(Oc3ccc(NC(=O)OC(C)c4cc(F)c(F)cc4F)c(Cl)c3)c2cc1OC (stereo not shown) [Example 96, 1-(2,4,5-Trifluorophenyl)ethyl N-{2-chloro-4-[(6,7-dimethoxy-4-quinazolinyl)oxy]phenyl}carbamate] has an IC50 (PDGF-Ra; Pharmacological Test Example 1) of 38 nM and an inhibition at 1 µM (c-kit; figure in parentheses in −( )) of 13%.
